Columns and labels:
[1] = molecular target: Matrix metalloproteinase-9 (Homo sapiens, UniProt P14780); experiment: Inhibitory activity against matrix metalloprotease (MMP-9)
Interstitial collagenase = molecular target: T1, Interstitial collagenase (Homo sapiens, UniProt P03956); experiment: Inhibitory activity against matrix metalloprotease (MMP-1)
T1 sequence (P03956 whole entry): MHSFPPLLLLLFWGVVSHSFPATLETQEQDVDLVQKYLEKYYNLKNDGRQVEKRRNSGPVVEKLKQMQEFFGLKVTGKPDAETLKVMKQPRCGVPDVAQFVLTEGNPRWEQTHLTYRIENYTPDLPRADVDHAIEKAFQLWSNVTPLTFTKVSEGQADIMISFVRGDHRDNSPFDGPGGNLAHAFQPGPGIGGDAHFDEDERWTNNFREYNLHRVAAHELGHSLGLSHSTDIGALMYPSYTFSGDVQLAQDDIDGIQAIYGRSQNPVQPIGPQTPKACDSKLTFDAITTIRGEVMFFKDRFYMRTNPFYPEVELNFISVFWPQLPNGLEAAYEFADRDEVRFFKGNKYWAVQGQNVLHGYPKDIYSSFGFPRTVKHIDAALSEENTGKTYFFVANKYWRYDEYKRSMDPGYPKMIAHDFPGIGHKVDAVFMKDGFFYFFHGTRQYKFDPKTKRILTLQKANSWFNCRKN

Stromelysin-1 [2] = molecular target: T2, Stromelysin-1 (Homo sapiens, UniProt P08254); experiment: Inhibition of matrix metalloprotease (MMP-3)
Target sequence in this assay (P08254 whole entry): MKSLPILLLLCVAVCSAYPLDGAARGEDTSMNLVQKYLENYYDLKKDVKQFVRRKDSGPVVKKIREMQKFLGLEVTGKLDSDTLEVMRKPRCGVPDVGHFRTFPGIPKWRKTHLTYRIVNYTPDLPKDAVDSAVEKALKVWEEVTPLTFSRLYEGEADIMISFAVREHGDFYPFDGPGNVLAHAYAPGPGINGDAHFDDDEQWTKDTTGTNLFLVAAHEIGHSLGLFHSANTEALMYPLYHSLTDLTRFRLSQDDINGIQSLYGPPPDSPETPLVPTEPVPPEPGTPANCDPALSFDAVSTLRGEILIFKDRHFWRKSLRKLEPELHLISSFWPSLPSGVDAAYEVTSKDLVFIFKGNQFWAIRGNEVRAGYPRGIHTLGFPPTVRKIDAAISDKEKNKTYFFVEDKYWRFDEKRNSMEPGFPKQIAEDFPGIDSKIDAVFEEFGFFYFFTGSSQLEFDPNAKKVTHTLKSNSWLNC

Stromelysin-1 [3] = molecular target: T2, Stromelysin-1; experiment: Inhibition of matrix metalloprotease (MMP-3) at 10 uM
Target sequence in this assay (P08254 100-477 limits assumed): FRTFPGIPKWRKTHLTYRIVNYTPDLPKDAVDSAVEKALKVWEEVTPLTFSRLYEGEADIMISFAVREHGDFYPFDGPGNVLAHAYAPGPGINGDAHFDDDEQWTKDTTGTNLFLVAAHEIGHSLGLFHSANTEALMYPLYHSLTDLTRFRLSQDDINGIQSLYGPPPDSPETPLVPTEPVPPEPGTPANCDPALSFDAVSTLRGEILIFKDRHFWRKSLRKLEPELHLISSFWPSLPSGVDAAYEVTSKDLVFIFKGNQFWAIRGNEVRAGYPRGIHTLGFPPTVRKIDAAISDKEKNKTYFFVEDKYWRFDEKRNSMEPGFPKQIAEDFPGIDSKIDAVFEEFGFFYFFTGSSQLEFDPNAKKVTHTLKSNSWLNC

Sequence of Matrix metalloproteinase-9 (P14780 whole entry): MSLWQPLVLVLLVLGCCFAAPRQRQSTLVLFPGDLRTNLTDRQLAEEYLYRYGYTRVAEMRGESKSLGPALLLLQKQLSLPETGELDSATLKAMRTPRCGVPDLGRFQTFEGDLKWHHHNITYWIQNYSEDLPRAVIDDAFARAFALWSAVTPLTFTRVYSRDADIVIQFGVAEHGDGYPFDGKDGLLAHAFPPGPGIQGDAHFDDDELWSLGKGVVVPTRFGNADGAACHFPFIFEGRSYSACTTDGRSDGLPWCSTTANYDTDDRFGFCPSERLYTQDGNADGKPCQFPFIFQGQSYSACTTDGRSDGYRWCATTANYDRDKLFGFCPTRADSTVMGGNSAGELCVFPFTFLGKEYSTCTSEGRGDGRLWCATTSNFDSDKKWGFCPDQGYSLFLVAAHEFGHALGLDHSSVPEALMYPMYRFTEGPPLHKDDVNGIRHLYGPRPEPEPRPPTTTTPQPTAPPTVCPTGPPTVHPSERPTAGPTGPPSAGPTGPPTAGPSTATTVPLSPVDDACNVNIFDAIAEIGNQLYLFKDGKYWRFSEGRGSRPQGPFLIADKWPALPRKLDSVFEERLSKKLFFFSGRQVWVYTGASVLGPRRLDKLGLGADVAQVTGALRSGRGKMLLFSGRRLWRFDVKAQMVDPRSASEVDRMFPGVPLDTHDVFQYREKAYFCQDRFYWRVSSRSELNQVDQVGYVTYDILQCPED

IC50 [1] | IC50 (Interstitial collagenase) | IC50 (Stromelysin-1 [2]) | inhibition (Stromelysin-1 [3]) | SMILES
640 nM | > 10000 nM | > 10000 nM | – | CC(C)(C)[C@H](NC(=O)C(Cc1ccc2ccccc2c1)C(O)C(=O)NO)C(N)=O (single isomer, unassigned)
410 nM | 1800 nM | – | 83% | CC(C)(C)[C@H](NC(=O)C(C[C@@H]1CCc2ccccc2C1)[C@H](O)C(=O)NO)C(N)=O (stereo not given in full)
230 nM | 800 nM | 230 nM | – | CC(C)(C)[C@H](NC(=O)C(C[C@H]1CCc2ccccc2C1)[C@H](O)C(=O)NO)C(N)=O (stereo not given in full)
– | > 10000 nM | – | – | NC(=O)[C@H](Cc1ccccc1)NC(=O)C(Cc1ccc2ccccc2c1)C(O)C(=O)NO (single isomer, unassigned)
850 nM | > 10000 nM | 3000 nM | – | NC(=O)[C@H](Cc1ccccc1)NC(=O)[C@H](Cc1ccc2cc(F)ccc2c1)[C@H](O)C(=O)NO
– | > 1000 nM | – | – | CNC(=O)[C@H](Cc1ccccc1)NC(=O)C(Cc1ccc2ccccc2c1)C(O)C(=O)NO (single isomer, unassigned)
– | > 10000 nM | – | – | CC(C)(C)[C@H](NC(=O)[C@H](Cc1ccc2ccc(F)cc2c1)[C@H](O)C(=O)NO)C(N)=O
190 nM | 5000 nM | 3000 nM | – | CC(C)(C)[C@H](NC(=O)C(Cc1cnc2ccccc2c1)C(O)C(=O)NO)C(N)=O (single isomer, unassigned)
– | < 100 nM | – | – | CNC(=O)[C@H](Cc1ccccc1)NC(=O)[C@H](Cc1cc2ccccc2o1)[C@H](O)C(=O)NO
– | > 10000 nM | – | – | NC(=O)[C@H](Cc1ccccc1)NC(=O)[C@H](Cc1ccc2ccc(F)cc2c1)[C@H](O)C(=O)NO
– | > 10000 nM | – | – | NC(=O)[C@H](Cc1ccccc1)NC(=O)C(Cc1ccc2ccc(O)cc2c1)C(O)C(=O)NO (single isomer, unassigned)
– | > 1000 nM | – | – | O=C(C[C@@H](Cc1ccc2ccccc2c1)C(=O)N[C@@H](Cc1ccccc1)C(=O)NCc1ccccc1)NO
– | > 1000 nM | – | – | CNC(=O)[C@@H](NC(=O)C(Cc1ccc2ccccc2c1)C(O)C(=O)NO)C(C)(C)C (single isomer, unassigned)
– | 500 nM | – | – | NC(=O)[C@H](Cc1ccccc1)NC(=O)[C@H](Cc1nc2ccccc2s1)[C@H](O)C(=O)NO
– | 140 nM | – | – | NC(=O)[C@H](Cc1ccccc1)NC(=O)[C@H](Cc1cc2ccccc2s1)[C@H](O)C(=O)NO

Reference: ChEMBL document CHEMBL1131875, “Selective inhibition of low affinity IgE receptor (CD23) processing: P1' bicyclomethyl substituents” (Bioorg Med Chem Lett, 1999)
